From ChEMBL document CHEMBL4507311, “Data for DCP probe A-1155463” (2021)

What was measured:
[1] = biological target: Activin receptor type-2A (Homo sapiens) (UniProt P27037); settings: Compound concentration 1000.0 nM
[2] = biological target: SRSF protein kinase 3 (Homo sapiens) (UniProt Q9UPE1); settings: Compound concentration 1000.0 nM
[3] = biological target: T1, Alpha-2B adrenergic receptor (Homo sapiens) (UniProt P18089); settings: Compound concentration 10.0 uM
T1 sequence (whole entry): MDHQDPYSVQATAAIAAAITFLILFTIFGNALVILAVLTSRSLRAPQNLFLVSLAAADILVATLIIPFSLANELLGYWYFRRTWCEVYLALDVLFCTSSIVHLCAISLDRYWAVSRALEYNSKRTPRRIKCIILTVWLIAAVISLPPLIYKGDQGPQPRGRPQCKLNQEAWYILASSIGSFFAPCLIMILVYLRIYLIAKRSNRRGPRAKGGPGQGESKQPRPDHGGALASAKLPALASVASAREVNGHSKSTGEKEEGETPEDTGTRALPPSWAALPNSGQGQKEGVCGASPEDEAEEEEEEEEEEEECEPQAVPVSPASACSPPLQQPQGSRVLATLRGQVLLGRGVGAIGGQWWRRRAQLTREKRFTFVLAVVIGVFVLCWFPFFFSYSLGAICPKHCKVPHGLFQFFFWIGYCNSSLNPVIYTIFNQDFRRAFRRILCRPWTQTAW

SRSF protein kinase 3 (Homo sapiens), sequence (Q9UPE1 whole entry): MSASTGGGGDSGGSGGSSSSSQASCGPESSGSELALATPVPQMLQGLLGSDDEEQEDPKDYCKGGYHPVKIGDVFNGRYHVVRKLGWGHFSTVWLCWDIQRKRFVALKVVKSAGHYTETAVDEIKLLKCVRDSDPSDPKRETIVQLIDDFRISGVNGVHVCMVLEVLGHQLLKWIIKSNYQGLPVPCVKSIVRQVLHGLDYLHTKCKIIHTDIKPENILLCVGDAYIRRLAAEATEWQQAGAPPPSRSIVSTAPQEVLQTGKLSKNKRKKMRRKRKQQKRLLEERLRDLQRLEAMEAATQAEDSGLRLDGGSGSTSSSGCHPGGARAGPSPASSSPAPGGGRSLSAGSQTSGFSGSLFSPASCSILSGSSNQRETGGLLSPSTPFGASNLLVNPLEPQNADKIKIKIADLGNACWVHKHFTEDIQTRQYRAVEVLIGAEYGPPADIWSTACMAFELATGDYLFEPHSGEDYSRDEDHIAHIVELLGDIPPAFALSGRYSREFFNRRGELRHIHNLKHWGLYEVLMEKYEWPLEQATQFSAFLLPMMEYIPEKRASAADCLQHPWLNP
Activin receptor type-2A (Homo sapiens), sequence (P27037 whole entry): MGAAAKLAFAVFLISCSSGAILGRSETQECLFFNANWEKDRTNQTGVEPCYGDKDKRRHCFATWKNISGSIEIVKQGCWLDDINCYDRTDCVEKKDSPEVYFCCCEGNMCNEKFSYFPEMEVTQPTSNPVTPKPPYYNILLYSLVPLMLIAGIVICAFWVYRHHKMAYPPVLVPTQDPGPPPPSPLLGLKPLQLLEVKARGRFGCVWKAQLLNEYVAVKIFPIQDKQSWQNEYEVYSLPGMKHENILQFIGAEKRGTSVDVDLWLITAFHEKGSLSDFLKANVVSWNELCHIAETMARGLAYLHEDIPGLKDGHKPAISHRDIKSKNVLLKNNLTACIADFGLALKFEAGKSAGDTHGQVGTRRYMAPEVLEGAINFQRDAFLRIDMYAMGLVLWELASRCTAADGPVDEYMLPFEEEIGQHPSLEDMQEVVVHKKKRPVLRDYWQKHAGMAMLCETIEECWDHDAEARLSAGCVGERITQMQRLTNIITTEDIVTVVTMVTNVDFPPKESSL

CN(C)CC#Cc1ccc(OCCCc2sc(N3CCc4cccc(C(=O)Nc5nc6ccccc6s5)c4C3)nc2C(=O)O)c(F)c1 [A-1155463]
inactive: residual activity [1] 94% | residual activity [2] 100% | inhibition [3] 17.2%
